The results in this text go back to publication PMC2810227, “3-O-Methylfunicone, a Selective Inhibitor of Mammalian Y-Family DNA Polymerases from an Australian Sea Salt Fungal Strain” (Marine Drugs, 2009).

In the assay the target is T1, human pol δ (Homo sapiens, UniProt P28340).
T1 construct: purified by nuclear fractionation of human peripheral blood cancer cells (Molt-4); endogenous in cells; host or cells: Molt-4
The assay is described as follows: DNA polymerase assay, pol δ. The class given is biochemical. To be noted: 100 μM. From the text: Pol α was purified from calf thymus by immuno-affinity column chromatography, as described by Tamai et al.. Recombinant rat pol β was purified from E. coli JMpβ5, as described by Date et al.. The human pol γ catalytic gene was cloned into pFastBac. Histidine-tagged enzyme was expressed using the BAC-TO-BAC HT Baculovirus Expression System according to the supplier’s manual (Life Technologies, MD, USA) and purified using ProBoundresin (Invitrogen Japan, Tokyo, Japan). Human pols δ and ɛ were purified by nuclear fractionation of human peripheral blood cancer cells (Molt-4) using the second subunit of pols δ and ɛ-conjugated affinity column chromatography, respectively. A truncated form of human pol η (residues 1–511) tagged with His6 at its C-terminal was expressed in E. coli cells and purified as described by Kusumoto et al.. A recombinant mouse pol ι tagged with His6 at its C-terminal was expressed and purified by Ni-NTA column chromatography as described elsewhere (Masutani et al., in preparation). […]
The compounds were dissolved in distilled dimethyl sulfoxide (DMSO) at various concentrations and sonicated for 30 sec. […] Activity without the inhibitor was considered 100%, and the remaining activity at each concentration of the inhibitor was determined relative to this value. […]

T1 sequence (P28340 whole entry): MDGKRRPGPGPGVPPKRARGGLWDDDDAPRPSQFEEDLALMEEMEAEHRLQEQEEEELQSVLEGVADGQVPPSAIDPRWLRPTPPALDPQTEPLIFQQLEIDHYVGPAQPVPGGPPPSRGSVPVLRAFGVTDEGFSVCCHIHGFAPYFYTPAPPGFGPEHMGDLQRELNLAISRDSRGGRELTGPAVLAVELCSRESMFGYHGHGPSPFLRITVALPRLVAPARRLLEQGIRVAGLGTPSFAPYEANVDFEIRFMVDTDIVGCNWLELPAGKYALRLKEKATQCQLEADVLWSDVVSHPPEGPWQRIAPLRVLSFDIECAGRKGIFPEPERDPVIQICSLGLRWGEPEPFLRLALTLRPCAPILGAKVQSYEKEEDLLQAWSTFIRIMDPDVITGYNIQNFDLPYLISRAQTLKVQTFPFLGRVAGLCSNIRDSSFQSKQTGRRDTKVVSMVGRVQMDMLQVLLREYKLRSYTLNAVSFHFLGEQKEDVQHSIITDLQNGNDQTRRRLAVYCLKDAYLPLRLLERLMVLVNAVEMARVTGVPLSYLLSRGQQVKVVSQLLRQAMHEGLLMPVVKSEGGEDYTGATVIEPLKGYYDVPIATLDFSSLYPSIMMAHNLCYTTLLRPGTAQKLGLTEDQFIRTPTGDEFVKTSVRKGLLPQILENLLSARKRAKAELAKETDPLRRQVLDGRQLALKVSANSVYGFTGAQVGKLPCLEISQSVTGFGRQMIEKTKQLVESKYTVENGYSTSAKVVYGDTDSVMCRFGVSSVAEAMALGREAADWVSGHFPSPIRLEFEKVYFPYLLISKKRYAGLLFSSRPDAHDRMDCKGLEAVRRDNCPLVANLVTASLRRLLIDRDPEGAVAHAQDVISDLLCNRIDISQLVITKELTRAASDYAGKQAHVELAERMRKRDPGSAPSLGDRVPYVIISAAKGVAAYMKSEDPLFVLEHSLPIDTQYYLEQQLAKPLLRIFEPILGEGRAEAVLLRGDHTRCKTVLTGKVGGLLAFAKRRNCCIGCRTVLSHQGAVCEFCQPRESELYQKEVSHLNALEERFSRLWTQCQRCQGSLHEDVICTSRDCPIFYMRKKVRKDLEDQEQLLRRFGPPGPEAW

`C/C=C/c1occ(C(=O)c2c(OC)cc(OC)cc2C(=O)OC)c(=O)c1OC` [compound 1, 3-O-methylfunicone]: the “effect on pol δ activity” value is recorded as “hardly influenced”.
